Measurements as given in the NIST ThermoML archive (doi:10.1021/je400250u).
Where “and” joins values, the source holds several entries; their conditions need not be identical. Identical values can stand only once. Numbers after ± are expanded uncertainties.

What was measured:
[1] = xn = mol fraction of the nth substance listed; details: 100 kPa, Liquid, x2 = 0; for viscosity: Capillary tube (Ostwald / Ubbelohde) method; for mass density: Vibrating tube method
[2] = refractive index (Na D-line) (dimensionless); xn = mol fraction of the nth substance listed; details: Liquid, Standard Abbe refractometry, x2 = 0
[3] = 100 kPa, Liquid; for viscosity: Capillary tube (Ostwald / Ubbelohde) method; for mass density: Vibrating tube method
[4] = refractive index (Na D-line) (dimensionless); details: 101.33 kPa, Liquid, Standard Abbe refractometry

Structure (SMILES) | viscosity ([1]; 293.15 K) | mass density ([1]; 293.15 K) | viscosity ([1]; 298.15 K) | mass density ([1]; 298.15 K) | viscosity ([1]; 303.15 K) | mass density ([1]; 303.15 K) | viscosity ([1]; 308.15 K) | mass density ([1]; 308.15 K) | viscosity ([1]; 313.15 K) | mass density ([1]; 313.15 K) | viscosity ([1]; 318.15 K) | mass density ([1]; 318.15 K) | viscosity ([1]; 323.15 K) | mass density ([1]; 323.15 K) | refractive index ([2]; 298.15 K, 100 kPa) | refractive index ([2]; 308.15 K, 100 kPa) | refractive index ([2]; 318.15 K, 100 kPa) | viscosity ([3]; 293.15 K) | mass density ([3]; 293.15 K) | viscosity ([3]; 298.15 K) | other results
CCCCCCCCCCC [undecane] + C1CC[C@H]2CCCC[C@H]2C1 | 1.17 ± 0.014 mPa·s | 740.28 ± 0.32 kg/m3 | 1.086 ± 0.014 mPa·s | 736.63 ± 0.32 kg/m3 | 1.004 ± 0.013 mPa·s | 732.93 ± 0.32 kg/m3 | 0.931 ± 0.013 mPa·s | 729.22 ± 0.32 kg/m3 | 0.862 ± 0.013 mPa·s | 725.51 ± 0.32 kg/m3 | 0.801 ± 0.012 mPa·s | 721.78 ± 0.32 kg/m3 | 0.749 ± 0.012 mPa·s | 718.04 ± 0.31 kg/m3 | 1.4138 ± 0.0013 | 1.4095 ± 0.0013 | 1.4058 ± 0.0013 | – | – | – | –
CCCCCCCCC [nonane] + C1CC[C@H]2CCCC[C@H]2C1 | 0.724 ± 0.011 mPa·s | 717.94 ± 0.24 kg/m3 | 0.681 ± 0.011 mPa·s | 714.11 ± 0.24 kg/m3 | 0.64 ± 0.011 mPa·s | 710.2 ± 0.24 kg/m3 | 0.604 ± 0.011 mPa·s | 706.29 ± 0.25 kg/m3 | 0.571 ± 0.011 mPa·s | 702.35 ± 0.25 kg/m3 | 0.547 ± 0.011 mPa·s | 698.4 ± 0.25 kg/m3 | 0.521 ± 0.011 mPa·s | 694.43 ± 0.25 kg/m3 | 1.4026 ± 0.0013 | 1.3983 ± 0.0013 | 1.3937 ± 0.0013 | – | – | – | –
CCCCCCCCCC [decane] | – | – | – | – | – | – | – | – | – | – | – | – | – | – | – | – | – | 0.916 ± 0.012 mPa·s | 731.14 ± 0.23 kg/m3 | 0.852 ± 0.012 mPa·s | mass density ([3]; 298.15 K): 727.43 ± 0.23 kg/m3; viscosity ([3]; 303.15 K): 0.799 ± 0.012 mPa·s; mass density ([3]; 303.15 K): 723.64 ± 0.23 kg/m3; viscosity ([3]; 308.15 K): 0.751 ± 0.011 mPa·s; mass density ([3]; 308.15 K): 719.84 ± 0.23 kg/m3; viscosity ([3]; 313.15 K): 0.709 ± 0.011 mPa·s; mass density ([3]; 313.15 K): 716.03 ± 0.23 kg/m3; viscosity ([3]; 318.15 K): 0.667 ± 0.011 mPa·s; mass density ([3]; 318.15 K): 712.2 ± 0.23 kg/m3; viscosity ([3]; 323.15 K): 0.632 ± 0.011 mPa·s; mass density ([3]; 323.15 K): 708.36 ± 0.23 kg/m3; refractive index ([4]; 298.15 K): 1.4098 ± 0.0012; refractive index ([4]; 308.15 K): 1.4052 ± 0.0012; refractive index ([4]; 318.15 K): 1.4 ± 0.0012
CCCCCCCCC [nonane] + C1CC[C@H]2CCCC[C@@H]2C1 | 0.724 ± 0.011 mPa·s | 717.94 ± 0.24 kg/m3 | 0.681 ± 0.011 mPa·s | 714.11 ± 0.24 kg/m3 | 0.64 ± 0.011 mPa·s | 710.2 ± 0.24 kg/m3 | 0.604 ± 0.011 mPa·s | 706.29 ± 0.25 kg/m3 | 0.571 ± 0.011 mPa·s | 702.35 ± 0.25 kg/m3 | 0.547 ± 0.011 mPa·s | 698.4 ± 0.25 kg/m3 | 0.521 ± 0.011 mPa·s | 694.43 ± 0.25 kg/m3 | 1.4026 ± 0.0013 | 1.3983 ± 0.0013 | 1.3937 ± 0.0013 | – | – | – | –
C1CC[C@H]2CCCC[C@H]2C1 [cis-decahydronaphthalene] | – | – | – | – | – | – | – | – | – | – | – | – | – | – | – | – | – | 3.355 ± 0.033 mPa·s | 896.85 ± 0.48 kg/m3 | 3.011 ± 0.03 mPa·s | mass density ([3]; 298.15 K): 893.06 ± 0.48 kg/m3; viscosity ([3]; 303.15 K): 2.718 ± 0.028 mPa·s; mass density ([3]; 303.15 K): 889.26 ± 0.48 kg/m3; viscosity ([3]; 308.15 K): 2.47 ± 0.026 mPa·s; mass density ([3]; 308.15 K): 885.46 ± 0.48 kg/m3; viscosity ([3]; 313.15 K): 2.252 ± 0.024 mPa·s; mass density ([3]; 313.15 K): 881.65 ± 0.48 kg/m3; viscosity ([3]; 318.15 K): 2.079 ± 0.022 mPa·s and 2.063 ± 0.022 mPa·s; mass density ([3]; 318.15 K): 877.85 ± 0.47 kg/m3; viscosity ([3]; 323.15 K): 1.912 ± 0.021 mPa·s and 1.898 ± 0.021 mPa·s; mass density ([3]; 323.15 K): 874.05 ± 0.47 kg/m3; refractive index ([4]; 298.15 K): 1.4776 ± 0.0013; refractive index ([4]; 308.15 K): 1.4736 ± 0.0013; refractive index ([4]; 318.15 K): 1.4696 ± 0.0013
CCCCCCCCCC [decane] + C1CC[C@H]2CCCC[C@@H]2C1 | 0.916 ± 0.012 mPa·s | 731.14 ± 0.23 kg/m3 | 0.852 ± 0.012 mPa·s | 727.43 ± 0.23 kg/m3 | 0.799 ± 0.012 mPa·s | 723.64 ± 0.23 kg/m3 | 0.751 ± 0.011 mPa·s | 719.84 ± 0.23 kg/m3 | 0.709 ± 0.011 mPa·s | 716.03 ± 0.23 kg/m3 | 0.667 ± 0.011 mPa·s | 712.2 ± 0.23 kg/m3 | 0.632 ± 0.011 mPa·s | 708.36 ± 0.23 kg/m3 | – | – | – | – | – | – | refractive index ([2]; 298.15 K, 101 kPa): 1.4098 ± 0.0007; refractive index ([2]; 308.15 K, 101 kPa): 1.4052 ± 0.0007; refractive index ([2]; 318.15 K, 101 kPa): 1.4 ± 0.0007
C1CC[C@H]2CCCC[C@@H]2C1 [trans-decahydronaphthalene] | – | – | – | – | – | – | – | – | – | – | – | – | – | – | – | – | – | 2.112 ± 0.015 mPa·s | 869.78 ± 0.13 kg/m3 | 1.925 ± 0.015 mPa·s | mass density ([3]; 298.15 K): 866.07 ± 0.13 kg/m3; viscosity ([3]; 303.15 K): 1.769 ± 0.014 mPa·s; mass density ([3]; 303.15 K): 862.34 ± 0.14 kg/m3; viscosity ([3]; 308.15 K): 1.628 ± 0.013 mPa·s; mass density ([3]; 308.15 K): 858.61 ± 0.14 kg/m3; viscosity ([3]; 313.15 K): 1.505 ± 0.013 mPa·s; mass density ([3]; 313.15 K): 854.88 ± 0.14 kg/m3; viscosity ([3]; 318.15 K): 1.394 ± 0.013 mPa·s; mass density ([3]; 318.15 K): 851.14 ± 0.14 kg/m3; viscosity ([3]; 323.15 K): 1.295 ± 0.012 mPa·s; mass density ([3]; 323.15 K): 847.4 ± 0.14 kg/m3; refractive index ([4]; 298.15 K): 1.4662 ± 0.0012; refractive index ([4]; 308.15 K): 1.4618 ± 0.0012; refractive index ([4]; 318.15 K): 1.4581 ± 0.0012
CCCCCCCCCCC [undecane] + C1CC[C@H]2CCCC[C@@H]2C1 | 1.17 ± 0.014 mPa·s | 740.28 ± 0.32 kg/m3 | 1.086 ± 0.014 mPa·s | 736.63 ± 0.32 kg/m3 | 1.004 ± 0.013 mPa·s | 732.93 ± 0.32 kg/m3 | 0.931 ± 0.013 mPa·s | 729.22 ± 0.32 kg/m3 | 0.862 ± 0.013 mPa·s | 725.51 ± 0.32 kg/m3 | 0.801 ± 0.012 mPa·s | 721.78 ± 0.32 kg/m3 | 0.749 ± 0.012 mPa·s | 718.04 ± 0.31 kg/m3 | 1.4138 ± 0.0013 | 1.4095 ± 0.0013 | 1.4058 ± 0.0013 | – | – | – | –
CCCCCCCCC [nonane] | – | – | – | – | – | – | – | – | – | – | – | – | – | – | – | – | – | 0.724 ± 0.011 mPa·s | 717.94 ± 0.24 kg/m3 | 0.681 ± 0.011 mPa·s | mass density ([3]; 298.15 K): 714.11 ± 0.24 kg/m3; viscosity ([3]; 303.15 K): 0.64 ± 0.011 mPa·s; mass density ([3]; 303.15 K): 710.2 ± 0.24 kg/m3; viscosity ([3]; 308.15 K): 0.604 ± 0.011 mPa·s; mass density ([3]; 308.15 K): 706.29 ± 0.25 kg/m3; viscosity ([3]; 313.15 K): 0.571 ± 0.011 mPa·s; mass density ([3]; 313.15 K): 702.35 ± 0.25 kg/m3; viscosity ([3]; 318.15 K): 0.547 ± 0.011 mPa·s; mass density ([3]; 318.15 K): 698.4 ± 0.25 kg/m3; viscosity ([3]; 323.15 K): 0.521 ± 0.011 mPa·s; mass density ([3]; 323.15 K): 694.43 ± 0.25 kg/m3; refractive index ([4]; 298.15 K): 1.4026 ± 0.0013; refractive index ([4]; 308.15 K): 1.3983 ± 0.0013; refractive index ([4]; 318.15 K): 1.3937 ± 0.0013
CCCCCCCCCC [decane] + C1CC[C@H]2CCCC[C@H]2C1 | 0.916 ± 0.012 mPa·s | 731.14 ± 0.23 kg/m3 | 0.852 ± 0.012 mPa·s | 727.43 ± 0.23 kg/m3 | 0.799 ± 0.012 mPa·s | 723.64 ± 0.23 kg/m3 | 0.751 ± 0.011 mPa·s | 719.84 ± 0.23 kg/m3 | 0.709 ± 0.011 mPa·s | 716.03 ± 0.23 kg/m3 | 0.667 ± 0.011 mPa·s | 712.2 ± 0.23 kg/m3 | 0.632 ± 0.011 mPa·s | 708.36 ± 0.23 kg/m3 | 1.4098 ± 0.0012 | 1.4052 ± 0.0012 | 1.4 ± 0.0012 | – | – | – | –
CCCCCCCCCCC [undecane] | – | – | – | – | – | – | – | – | – | – | – | – | – | – | – | – | – | 1.17 ± 0.014 mPa·s | 740.28 ± 0.32 kg/m3 | 1.086 ± 0.014 mPa·s | mass density ([3]; 298.15 K): 736.63 ± 0.32 kg/m3; viscosity ([3]; 303.15 K): 1.004 ± 0.013 mPa·s; mass density ([3]; 303.15 K): 732.93 ± 0.32 kg/m3; viscosity ([3]; 308.15 K): 0.931 ± 0.013 mPa·s; mass density ([3]; 308.15 K): 729.22 ± 0.32 kg/m3; viscosity ([3]; 313.15 K): 0.862 ± 0.013 mPa·s; mass density ([3]; 313.15 K): 725.51 ± 0.32 kg/m3; viscosity ([3]; 318.15 K): 0.801 ± 0.012 mPa·s; mass density ([3]; 318.15 K): 721.78 ± 0.32 kg/m3; viscosity ([3]; 323.15 K): 0.749 ± 0.012 mPa·s; mass density ([3]; 323.15 K): 718.04 ± 0.31 kg/m3; refractive index ([4]; 298.15 K): 1.4138 ± 0.0013; refractive index ([4]; 308.15 K): 1.4095 ± 0.0013; refractive index ([4]; 318.15 K): 1.4058 ± 0.0013
